From PMC3646166, “Comparison of Aqueous and 1-Octanol Solubility as well as Liquid–Liquid Distribution of Acyclovir Derivatives and Their Complexes with Hydroxypropyl-β-Cyclodextrin” (Journal of Solution Chemistry, 2013)
Converted amounts (≈) assume the structure as drawn. Like-named read-outs stand apart in the source and are kept apart here.

Columns and labels:
[1] = Extraction experiments, 1-octanol-water partition coefficient; format: physicochemical; conditions: 25 °C, read-out: Partition coefficient 1-octanol–water, P oc/w (converted)
Experimental: The equipment described above was also used for the determination of the 1-octanol-water partition coefficients. […] The partition coefficient was evaluated as:1 Poc/w=Coc/Cw where C oc and C w are the molar concentrations of the solute in the 1-octanol and water phases, respectively. The correctness of the P oc/w value of each compound was verified by checking the mass balance of the starting amount of the substance and the total amount of the substance partitioned between the two phases.

[2] = Solubility in water or 1-octanol (saturated solutions, UV-Vis); format: physicochemical; conditions: for solubility: thermodynamic from solid, water
Experimental: The sample of substance examined (10 mg or 80 mg for 6-Me-TACV) was placed in a glass ampoule and double-distilled, deionized water (Millipore, Elix 5 purifier), or pure anhydrous 1-octanol (Sigma 99 %) was added. To attain thermodynamic equilibrium, the solute and the solvent were mixed continuously for a minimum of 4 days at a speed of 25 rpm. After the experiment was completed, the sample was centrifuged at 40,000 rpm for 40 min at 25 ± 0.1 °C, the supernatant liquid was collected, diluted, and its concentration determined with a UV–Vis (Varian Carry IE) spectrophotometer. The experiments were repeated at least three times for each solubility.

[3] = Solubility in buffered cyclodextrin solutions (excess method of Higuchi and Connors); format: physicochemical; set-up: Stability constant K s of HP-β-CD complex: unit not given here; conditions: for Correlation parameter a (Eq. 2, Cs = a + b·CCD) / Correlation parameter b (Eq. 2, Cs = a + b·CCD): buffered HP-β-CD solutions
Experimental: Solubilities of the studied compounds was ensured according to the excess method of Higuchi and Connors. […] An excess amount of compounds 4-9 and 11-12 was added to 1.5 mL of aqueous phosphate buffer (concentration of buffer was equal 0.067 mol·dm^-3) solutions, (pH = 5.5 or 7.0) containing various concentration of HP-β-CD. The cyclodextrin concentration changed in the range of 10^-3 to 2 × 10^-2 mol·dm^-3. The suspensions were shaken in screw-capped plastic vials in a water bath thermostat with the volume of 60 dm^3 (home made apparatus by IChF PAN) at 25 and 37 °C. After 7 days equilibrium was reached and then the suspensions were centrifuged and the absorbance of the studied compounds was measured by UV-Vis spectrophotometry using a Shimadzu UV 2401 PC Spectrometer equipped with a thermostatically controlled cell compartment. During the measurement of absorbance, a buffered-solution of HP-β-CD, of the same concentration as in the studied solution, was always put as the reference. The average values of at least three independent determinations of the absorbance were used for calculation of the concentrations of the particular acyclovir derivatives. […] The main reason for the low solubility of tricyclic acyclovir derivatives with aromatic groups in water is the high hydrophobicity of these substituents. Use of cyclodextrins, which can include aromatic groups into their cavity, may enhance the aqueous solubility of such compounds. For this purpose we used several cyclodextrins and hydroxypropyl-β-cyclodextrin was chosen as being more efficient for complexating the tricyclic acyclovir derivatives. The investigations were performed, for chosen compounds, in various cyclodextrin HP-β-CD, buffered solutions (pH = 5.5 and 7.0) at 25 and 37 °C. […] Values of the correlation parameters a and b for tricyclic acyclovir derivatives complexed by cyclodextrin are presented in Table 3. […] The stability constants of the inclusion complexes between HP-β-CD and acyclovir derivatives have been calculated according to the Higuchi-Connors method using:3 K=b/C0(1-b) where C 0 is the solubility of the sample in solutions without cyclodextrin, obtained by determination of saturated solution concentration of acyclovir derivative solutions. […] These two values can differ, but in our study are very close to each other.

[4] = set-up: method as in earlier work; conditions: human body ref 1; cited from earlier work
[5] = 25 °C (Table 1), read-out: Solubility in water, C w
[6] = water saturated with 1-octanol, 25 °C, read-out: Solubility in water saturated with 1-octanol, C woc
[7] = 35 °C, read-out: Aqueous solubility, C w
[8] = 45 °C, read-out: Aqueous solubility, C w

SMILES | logP at 2 days [1] | Solubility ratio in 1-octanol and water, C oc/C w ([2]; 25 °C) | Solubility ratio in 1-octanol saturated with water and water saturated with 1-octanol, C ocw/C woc ([2]; 25 °C) | solubility [2, 5] | solubility [2, 6] | solubility [2, 7] | solubility [2, 8] | Correlation parameter a (Eq. 2, Cs = a + b·CCD) ([3]; pH = 5.5, 25 °C) | Correlation parameter b (Eq. 2, Cs = a + b·CCD) ([3]; pH = 5.5, 25 °C) | Correlation parameter a (Eq. 2, Cs = a + b·CCD) ([3]; pH = 5.5, 37 °C) | Correlation parameter b (Eq. 2, Cs = a + b·CCD) ([3]; pH = 5.5, 37 °C) | Correlation parameter a (Eq. 2, Cs = a + b·CCD) ([3]; pH = 7.0, 25 °C) | Correlation parameter b (Eq. 2, Cs = a + b·CCD) ([3]; pH = 7.0, 25 °C) | Correlation parameter a (Eq. 2, Cs = a + b·CCD) ([3]; pH = 7.0, 37 °C) | Stability constant K s of HP-β-CD complex ([3]; pH = 5.5, 25 °C) | Stability constant K s of HP-β-CD complex ([3]; pH = 5.5, 37 °C) | Stability constant K s of HP-β-CD complex ([3]; pH = 7, 25 °C) | Stability constant K s of HP-β-CD complex ([3]; pH = 7, 37 °C) | Correlation parameter b (Eq. 2, Cs = a + b·CCD) ([3]; pH = 7.0, 37 °C) | Absorption relative to application of acyclovir [4]
O=c1c2ncn(COCCO)c2nc2[nH]c(-c3ccc(-c4ccccc4)cc3)cn12 [Compound 9] | 0.491 | 8.90 | 3.10 | 229 µM (≈ 91.9 µg/mL) | 583 µM (≈ 234 µg/mL) | 554 µM (≈ 222 µg/mL) | 658 µM (≈ 264 µg/mL) | 2.18 × 10^−4 | 2.12 × 10^−2 | 5.03 × 10^−4 | 2.98 × 10^−2 | 2.65 × 10^−4 | 2.84 × 10^−2 | 5.95 × 10^−4 | 100 (±8) | 61 (±5) | 110 (±6) dm·mol^−1 | 68 (±4) | – | –
O=c1c2ncn(COCCO)c2nc2[nH]c(-c3ccc4ccccc4c3)cn12 [Compound 12] | 0.549 | 4.37 | 3.58 | 166 µM (≈ 62.3 µg/mL) | 191 µM (≈ 71.7 µg/mL) | 256 µM (≈ 96.1 µg/mL) | 265 µM (≈ 99.5 µg/mL) | 2.99 × 10^−5 | 0.88 × 10^−2 | 3.37 × 10^−5 | 0.93 × 10^−2 | 3.05 × 10^−5 | 0.94 × 10^−2 | 4.29 × 10^−5 | 297 (±7) | 279 (±9) | 311 (±9) | 305 (±9) | 1.29 × 10^−2 | –
CC(C)[C@H](N)C(=O)OCCOCn1cnc2c(=O)[nH]c(N)nc21 [valacyclovir] | – | – | – | – | – | – | – | – | – | – | – | – | – | – | – | – | – | – | – | four times higher
